Results reported in BindingDB's records for PubMed 39149111 (Cairo University).

Target: Prostaglandin G/H synthase 2 (Ovis aries) (UniProt P79208)
Assay: Inhibition of ovine COX-2 using arachidonic acid as substrate preincubated for 5 mins followed by substrate addition

Prostaglandin G/H synthase 2 (Ovis aries), sequence (P79208 whole entry, looked up): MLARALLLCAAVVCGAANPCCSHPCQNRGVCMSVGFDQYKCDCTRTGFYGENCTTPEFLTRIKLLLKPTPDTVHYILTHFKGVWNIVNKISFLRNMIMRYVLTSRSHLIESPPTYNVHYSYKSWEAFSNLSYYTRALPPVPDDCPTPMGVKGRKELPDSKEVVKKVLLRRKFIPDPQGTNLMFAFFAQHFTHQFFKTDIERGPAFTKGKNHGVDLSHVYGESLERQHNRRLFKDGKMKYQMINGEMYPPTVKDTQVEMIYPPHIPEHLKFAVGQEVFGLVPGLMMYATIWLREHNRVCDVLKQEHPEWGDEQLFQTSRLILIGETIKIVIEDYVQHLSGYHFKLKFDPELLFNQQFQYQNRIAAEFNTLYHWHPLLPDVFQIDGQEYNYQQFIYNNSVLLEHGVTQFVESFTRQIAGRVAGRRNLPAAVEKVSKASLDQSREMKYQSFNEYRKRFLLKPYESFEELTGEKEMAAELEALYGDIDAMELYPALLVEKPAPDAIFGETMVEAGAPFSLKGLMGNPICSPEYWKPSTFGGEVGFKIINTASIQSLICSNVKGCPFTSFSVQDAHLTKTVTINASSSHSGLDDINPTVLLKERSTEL

IC50: 560 nM
SMILES: O=C1NNC(N=CCc2ccc([N+](=O)[O-])cc2)C1=NNc1ccc(-c2nc3ccccc3o2)cc1 (stereo unspecified)
